The values below come from US8361998B2, “Compounds and their use as IKACh blockers” (AstraZeneca AB, priority 2010, dated 2013).

Where a name gives a salt, the structure may show the parent alone. Read-outs that look alike come from different tables or passages of the source.

The assay deals with T1, human cardiac ion channel proteins hKir3.1/Kir3.4 (Homo sapiens, UniProt P48544+P48549).
T1 construct: expressed in transfected cells
T1 sequence (P48549 1-501): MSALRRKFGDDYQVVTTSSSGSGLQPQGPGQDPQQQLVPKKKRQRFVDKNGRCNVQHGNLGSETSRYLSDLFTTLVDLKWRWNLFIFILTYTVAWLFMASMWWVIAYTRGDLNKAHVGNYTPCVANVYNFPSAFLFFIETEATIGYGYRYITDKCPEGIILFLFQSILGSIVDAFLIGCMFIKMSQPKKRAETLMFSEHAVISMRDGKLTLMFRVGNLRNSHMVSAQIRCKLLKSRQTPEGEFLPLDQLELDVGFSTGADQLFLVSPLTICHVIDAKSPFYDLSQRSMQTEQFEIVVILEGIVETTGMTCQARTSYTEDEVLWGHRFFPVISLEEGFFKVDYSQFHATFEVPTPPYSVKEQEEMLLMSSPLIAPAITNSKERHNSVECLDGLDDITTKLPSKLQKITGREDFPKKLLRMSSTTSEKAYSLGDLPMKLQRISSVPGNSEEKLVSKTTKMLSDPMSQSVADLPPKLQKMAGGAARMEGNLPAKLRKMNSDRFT
T1 sequence (P48544 1-419): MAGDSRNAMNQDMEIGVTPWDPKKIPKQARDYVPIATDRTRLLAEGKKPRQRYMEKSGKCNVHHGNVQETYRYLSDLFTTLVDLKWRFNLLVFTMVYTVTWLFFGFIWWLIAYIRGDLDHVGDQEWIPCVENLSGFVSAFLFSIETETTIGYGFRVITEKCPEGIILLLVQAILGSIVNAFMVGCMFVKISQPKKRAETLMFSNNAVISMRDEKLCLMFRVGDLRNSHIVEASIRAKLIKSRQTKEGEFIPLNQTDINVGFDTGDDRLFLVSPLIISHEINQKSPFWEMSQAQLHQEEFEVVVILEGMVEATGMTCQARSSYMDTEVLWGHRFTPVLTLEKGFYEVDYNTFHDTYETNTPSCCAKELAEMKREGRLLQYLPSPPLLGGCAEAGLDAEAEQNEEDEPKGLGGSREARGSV
In words: Atomic Absorption Screening (AAS) Rb efflux assay of hKir3.1/Kir3.4 block, carbachol/high K+ stimulated, 10-pt or 7-pt CR. Type of assay: cell-based. Particulars: AAS Rb efflux, CHO-K1 cells expressing hKir3.1/Kir3.4. An outline of the steps:
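Mean IC50s derive from >4 replicates over 0.003–67 μmol/L (10-point) or >3 replicates over 0.037–27 μmol/L (7-point), both threefold steps. Rb-loaded (3 h, 37° C) CHO-K1 cells stably expressing hKir3.1/Kir3.4 saw compound for 5 min at RT before 10-min channel opening by carbachol 10 μM/KCl 20 mM final. Released Rb was quantified by atomic absorption.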

The mark [1] stands for this setting: 7-pt CR (0.037 to 27 μmol/L), mean of >3 replicates, read-out: IKACh IC50 7-pt CR, AAS.
Where [2] appears, read: 10-pt CR (0.003 to 67 μmol/L), mean of >4 replicates, read-out: IKACh IC50 10-pt CR, AAS.

As a reminder, the IC50 is the concentration needed to halve the response being measured. As to `CC(C)[C@@H](CN1CCCC1)N(C)C(=O)c1ccc(Br)cc1` [Example 19, (S)-1-(2-(4-bromo-N-methylbenzamido)-3-methylbutyl)pyrrolidinium 3-carboxy-2,3-dihydroxypropanoate], the IC50 under setting [1] was 0.82 µM and the IC50 under setting [2] stood at 4.6 µM.
Take `CC[C@@H](CN1CC(O)C1)N(C)C(=O)c1ccc(Cl)cc1` [Example 39.12, (S)-4-Chloro-N-(1-(3-hydroxyazetidin-1-yl)butan-2-yl)-N-methylbenzamide]: the IC50 under setting [2] turned out to be 3.9 µM.
Same read-out and setting: the same measure for `CCCC[C@@H](CN1CC(O)C1)N(C)C(=O)c1ccc(C#N)cc1` [Example 33.4, 4-Cyano-N-[(2S)-1-(3-hydroxyazetidin-1-yl)hexan-2-yl]-N-methylbenzamide]: 1.1 µM; for `CC(C)C[C@@H](CN1CC(O)C1)N(C)C(=O)c1ccc(Cl)cc1` [Example 38.2, 4-Chloro-N-[(2S)-1-(3-hydroxyazetidin-1-yl)-4-methylpentan-2-yl]-N-methylbenzamide]: 0.11 µM.
On to `CC(C)[C@@H](CN1CCCC1)N(C)C(=O)c1ccc(Cl)cc1` [Example 18, (S)-1-(2-(4-Chloro-N-methylbenzamido)-3-methylbutyl)pyrrolidinium chloride], for which the IC50 turned out to be 1.2 µM under setting [1] and 6.8 µM under setting [2].
For the compound `CC(C)C[C@@H](CN1CC(O)C1)N(C)C(=O)c1ccc(F)c(F)c1` [Example 38.1, 3,4-Difluoro-N-[(2S)-1-(3-hydroxyazetidin-1-yl)-4-methylpentan-2-yl]-N-methylbenzamide], the IC50 under setting [2] came out at 1.3 µM.
Same read-out and setting: the same measure for `CC(C)[C@@H](CN1CCC1)N(C)C(=O)c1ccc(Cl)cc1` [Example 5.1, (S)-N-(1-(Azetidin-1-yl)-3-methylbutan-2-yl)-4-chloro-N-methylbenzamide]: 6 µM.
As to `CC(C)[C@@H](CN1CCCC1)N(C)C(=O)c1ccc(F)c(Cl)c1` [Example 16.55, (S)-3-Chloro-4-fluoro-N-methyl-N-(3-methyl-1-(pyrrolidin-1-yl)butan-2-yl)benzamide], the IC50 runs as follows: under setting [1], 1.4 µM; under setting [2], 1.9 µM.
For `CN(C(=O)c1ccc(Br)cc1)[C@H](CN1CC(O)C1)C1CC1` [Example 4.4, (S)-4-Bromo-N-(1-cyclopropyl-2-(3-hydroxyazetidin-1-yl)ethyl)-N-methylbenzamide], the IC50 under setting [2] came out at 0.59 µM.
On the same count and under the same terms, the same measure for `Cc1cc(C(=O)N(C)[C@H](CN2CC(O)C2)C2CC2)ccc1F` [Example 7.1, (S)—N-(1-Cyclopropyl-2-(3-hydroxyazetidin-1-yl)ethyl)-4-fluoro-N,3-dimethylbenzamide]: 1.3 µM.
`CN(C(=O)c1ccc(Cl)cc1)[C@H](CN1CC(O)C1)C1CCC1` [Example 39.14, (S)-4-Chloro-N-(1-cyclobutyl-2-(3-hydroxyazetidin-1-yl)ethyl)-N-methylbenzamide]: the IC50 under setting [2] was determined as 0.072 µM.
Same read-out and setting: the result for `CCC[C@@H](CN1CC(O)C1)N(C)C(=O)c1ccc(F)cc1` [Example 8.6, (S)-4-Fluoro-N-(1-(3-hydroxyazetidin-1-yl)pentan-2-yl)-N-methylbenzamide] reads 8.5 µM; that for `CCC[C@@H](CN1CC(O)C1)N(C)C(=O)c1ccc(Cl)cc1` [Example 8.2, (S)-4-Chloro-N-(1-(3-hydroxyazetidin-1-yl)pentan-2-yl)-N-methyl-benzamide, hydrochloride], 0.88 µM.
On the same count and under the same terms, the same measure for `CC[C@H](C)[C@@H](CN1CC(O)C1)N(C)C(=O)c1ccc(C#N)cc1F` [Example 29.7, 4-Cyano-2-fluoro-N-((2S,3S)-1-(3-hydroxyazetidin-1-yl)-3-methylpentan-2-yl)-N-methylbenzamide]: 3.5 µM; for `CN(C(=O)c1ccc(C#N)cc1)[C@H](CN1CC(O)C1)C1CCC1` [Example 39.2, (S)-4-Cyano-N-(1-cyclobutyl-2-(3-hydroxyazetidin-1-yl)ethyl)-N-methylbenzamide]: 0.49 µM; for `CN(C(=O)c1ccc(F)c(Cl)c1)[C@H](CN1CC(O)C1)C1CC1` [Example 7.3, (S)-3-Chloro-N-(1-cyclopropyl-2-(3-hydroxyazetidin-1-yl)ethyl)-4-fluoro-N-methylbenzamide]: 1.9 µM.
Still for that read-out and setting: the same measure for `CCC[C@@H](CN1CCC1)N(C)C(=O)c1ccc(Cl)cc1` [Example 1.2, (S)-N-(1-(Azetidin-1-yl)pentan-2-yl)-4-chloro-N-methylbenzamide]: 3.6 µM.
In the case of `CC(C)[C@@H](CN1CC[C@H](O)C1)N(C)C(=O)c1ccc(Cl)cc1` [Example 10.2, 4-Chloro-N-((S)-1-((S)-3-hydroxypyrrolidin-1-yl)-3-methylbutan-2-yl)-N-methylbenzamide hemi tartrate], the IC50 reads like this: under setting [1], 2 µM; under setting [2], 5.1 µM.
Take `CC(C)[C@@H](CN1CC(O)C1)N(C)C(=O)c1ccc(Cl)cc1` [Example 6.2, (S)-4-Chloro-N-(1-(3-hydroxyazetidin-1-yl)-3-methylbutan-2-yl)-N-methylbenzamide]: the IC50 under setting [2] stood at 2.6 µM.
On the same count and under the same terms, the same measure for `CCCC[C@@H](CN1CC(O)C1)N(C)C(=O)c1ccc(F)cc1` [Example 33.7, 4-Fluoro-N-[(2S)-1-(3-hydroxyazetidin-1-yl)hexan-2-yl]-N-methylbenzamide]: 0.55 µM.
On the same count and under the same terms, the same measure for `CC(C)C[C@@H](CN1CC(O)C1)N(C)C(=O)c1ccc(C#N)cc1F` [Example 38.6, 4-Cyano-2-fluoro-N-[(2S)-1-(3-hydroxyazetidin-1-yl)-4-methylpentan-2-yl]-N-methylbenzamide]: 3.4 µM.
Same read-out and setting: the result for `Cc1cc(C(=O)N(C)[C@H](CN2CCC2)C2CC2)ccc1F` [Example 4.1, (S)—N-(2-(Azetidin-1-yl)-1-cyclopropylethyl)-4-fluoro-N,3-dimethylbenzamide] reads 5.9 µM.
In the case of `Cc1cc(C(=O)N(C)[C@H](CN2CC(O)C2)C2CCC2)ccc1F` [Example 39.16, (S)—N-(1-Cyclobutyl-2-(3-hydroxyazetidin-1-yl)ethyl)-4-fluoro-N,3-dimethylbenzamide], the half-maximal inhibitory concentration (IC50) under setting [2] was determined as 0.078 µM.
Same read-out and setting: the same measure for `CC(C)[C@@H](CN1CCC1)N(C)C(=O)c1ccc(Br)cc1.O=C(O)CCC(=O)O` [Example 5.2]: 1.8 µM.
Same read-out and setting: the result for `CCC[C@@H](CN1CC(O)C1)N(C)C(=O)c1ccc(F)c(F)c1` [Example 8.1, (S)-3,4-Difluoro-N-(1-(3-hydroxyazetidin-1-yl)pentan-2-yl)-N-methylbenzamide] reads 1.7 µM.
`Cc1cc(C(=O)N(C)[C@H](CN2CC(O)C2)C(C)C)ccc1F` [Example 6.1, (S)-4-Fluoro-N-(1-(3-hydroxyazetidin-1-yl)-3-methylbutan-2-yl)-N,3-dimethylbenzamide]: the IC50 under setting [2] was 1.5 µM.
Consider `Cc1cccc(C(=O)N(C)[C@H](CN2CCCC2)C(C)C)c1` [Example 12.2, (S)-1-(2-(N,3-Dimethylbenzamido)-3-methylbutyl)pyrrolidinium 2,3-dihydroxysuccinate], for which the 50% inhibitory concentration (IC50) is, setting by setting: under setting [1], 5.8 µM; under setting [2], 16 µM.
Regarding `CN(C(=O)c1ccc(Cl)cc1)[C@H](CN1CC(O)C1)C1CC1` [Example 7.2, (S)-4-Chloro-N-(1-cyclopropyl-2-(3-hydroxyazetidin-1-yl)ethyl)-N-methylbenzamide], the IC50 under setting [2] is 1.8 µM.
With `Cc1cc(C(=O)N(C)[C@H](CN2CCCC2)C(C)C)ccc1F` [Example 12.1, (S)-4-Fluoro-N,3-dimethyl-N-(3-methyl-1-(pyrrolidin-1-yl)butan-2-yl)benzamide-dihydroxysuccinate], the IC50 by setting is: under setting [1], 1.4 µM; under setting [2], 15 µM.
`CC(C)[C@@H](CN1CCCC1)N(C)C(=O)c1ccc(F)cc1Cl` [Example 1.17, (S)-2-Chloro-4-fluoro-N-methyl-N-(3-methyl-1-(pyrrolidin-1-yl)butan-2-yl)benzamide]: the IC50 by setting is: under setting [1], 2.8 µM; under setting [2], 4.2 µM.
Turning to `CCC[C@@H](CN1CCC1)N(C)C(=O)c1ccc(F)c(C)c1` [Example 1.4, (S)-N-(1-(Azetidin-1-yl)pentan-2-yl)-4-fluoro-N,3-dimethyl-benzamide], under setting [2], the IC50 worked out at 3.7 µM.
